BindingDB's records for doi:10.1016/0960-894X(95)00361-V (Sphinx Pharmaceuticals, 1995)
pIC50: −log10 of the molar value.

Tests used:
Test in all cases: PKC assay
[1] = target: Protein kinase C alpha type (Homo sapiens, UniProt P17252)
Protocol: (§1) The activity of PKC, activated by phosphatidylerine and Ca2+, is measured by its ability to transfer phosphate from [gamma-32P]ATP to lysine-rich histone.

[2] = target: Protein kinase C beta type (Homo sapiens, UniProt P05771)
Protocol: as §1

[3] = target: Protein kinase C delta type (Homo sapiens, UniProt Q05655)
Protein kinase C delta type, sequence (Q05655 whole entry): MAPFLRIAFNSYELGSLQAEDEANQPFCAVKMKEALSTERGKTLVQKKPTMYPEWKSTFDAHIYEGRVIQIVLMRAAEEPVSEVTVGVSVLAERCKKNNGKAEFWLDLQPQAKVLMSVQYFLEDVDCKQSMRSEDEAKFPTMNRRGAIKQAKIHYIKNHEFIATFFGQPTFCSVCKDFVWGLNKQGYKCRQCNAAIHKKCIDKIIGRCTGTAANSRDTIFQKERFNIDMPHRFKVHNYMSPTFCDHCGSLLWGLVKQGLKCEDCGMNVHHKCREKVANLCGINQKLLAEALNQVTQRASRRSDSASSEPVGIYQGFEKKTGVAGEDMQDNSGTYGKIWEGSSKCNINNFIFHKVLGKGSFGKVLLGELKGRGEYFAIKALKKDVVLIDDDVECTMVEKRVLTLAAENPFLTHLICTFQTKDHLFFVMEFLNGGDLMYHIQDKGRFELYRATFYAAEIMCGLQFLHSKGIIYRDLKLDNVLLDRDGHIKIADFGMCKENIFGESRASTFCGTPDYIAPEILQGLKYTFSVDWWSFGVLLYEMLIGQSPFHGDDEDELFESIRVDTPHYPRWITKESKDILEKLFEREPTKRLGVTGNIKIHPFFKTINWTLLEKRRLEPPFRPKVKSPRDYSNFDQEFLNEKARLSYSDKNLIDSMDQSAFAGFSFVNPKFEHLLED
Protocol: as §1

[4] = target: T1, Protein kinase C epsilon type (Homo sapiens, UniProt Q02156)
T1 sequence (Q02156 whole entry): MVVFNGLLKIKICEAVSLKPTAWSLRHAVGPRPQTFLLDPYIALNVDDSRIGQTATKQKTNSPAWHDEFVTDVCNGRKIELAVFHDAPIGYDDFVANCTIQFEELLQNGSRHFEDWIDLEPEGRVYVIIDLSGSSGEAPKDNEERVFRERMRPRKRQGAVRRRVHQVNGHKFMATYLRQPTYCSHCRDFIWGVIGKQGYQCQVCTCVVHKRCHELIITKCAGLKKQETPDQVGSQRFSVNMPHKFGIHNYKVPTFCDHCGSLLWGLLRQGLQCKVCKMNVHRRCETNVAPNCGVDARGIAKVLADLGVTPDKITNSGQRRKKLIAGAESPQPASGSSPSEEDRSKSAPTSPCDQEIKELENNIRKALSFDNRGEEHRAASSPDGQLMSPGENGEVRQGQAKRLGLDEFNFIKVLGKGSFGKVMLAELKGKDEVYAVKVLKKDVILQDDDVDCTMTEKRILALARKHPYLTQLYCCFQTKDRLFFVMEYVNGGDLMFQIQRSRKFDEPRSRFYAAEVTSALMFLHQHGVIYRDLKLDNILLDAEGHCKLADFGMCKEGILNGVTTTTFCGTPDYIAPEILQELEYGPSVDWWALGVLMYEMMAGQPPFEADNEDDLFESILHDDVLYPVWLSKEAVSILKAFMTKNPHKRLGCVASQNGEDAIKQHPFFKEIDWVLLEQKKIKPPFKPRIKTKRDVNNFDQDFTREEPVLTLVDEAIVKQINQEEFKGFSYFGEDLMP
Protocol: as §1

[5] = target: Protein kinase C eta type (Homo sapiens, UniProt P24723)
Protein kinase C eta type, sequence (P24723 whole entry): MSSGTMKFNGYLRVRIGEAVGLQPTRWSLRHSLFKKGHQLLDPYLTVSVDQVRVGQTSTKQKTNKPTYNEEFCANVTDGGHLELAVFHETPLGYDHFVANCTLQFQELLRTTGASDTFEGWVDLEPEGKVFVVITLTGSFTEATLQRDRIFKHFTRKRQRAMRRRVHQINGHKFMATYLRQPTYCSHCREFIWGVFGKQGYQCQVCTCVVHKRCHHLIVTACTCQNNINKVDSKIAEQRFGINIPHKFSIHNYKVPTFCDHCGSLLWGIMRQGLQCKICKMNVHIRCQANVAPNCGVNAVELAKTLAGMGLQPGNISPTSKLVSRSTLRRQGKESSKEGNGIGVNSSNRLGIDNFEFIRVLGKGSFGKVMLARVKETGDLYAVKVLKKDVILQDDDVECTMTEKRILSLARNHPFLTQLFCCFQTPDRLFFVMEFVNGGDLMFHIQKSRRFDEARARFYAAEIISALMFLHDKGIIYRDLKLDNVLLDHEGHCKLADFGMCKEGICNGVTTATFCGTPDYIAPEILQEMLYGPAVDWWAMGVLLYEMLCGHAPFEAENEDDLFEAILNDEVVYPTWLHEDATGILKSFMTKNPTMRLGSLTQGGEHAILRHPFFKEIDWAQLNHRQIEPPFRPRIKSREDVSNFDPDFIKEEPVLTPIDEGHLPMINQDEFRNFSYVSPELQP
Protocol: as §1

Protein kinase C beta type, sequence (P05771 whole entry): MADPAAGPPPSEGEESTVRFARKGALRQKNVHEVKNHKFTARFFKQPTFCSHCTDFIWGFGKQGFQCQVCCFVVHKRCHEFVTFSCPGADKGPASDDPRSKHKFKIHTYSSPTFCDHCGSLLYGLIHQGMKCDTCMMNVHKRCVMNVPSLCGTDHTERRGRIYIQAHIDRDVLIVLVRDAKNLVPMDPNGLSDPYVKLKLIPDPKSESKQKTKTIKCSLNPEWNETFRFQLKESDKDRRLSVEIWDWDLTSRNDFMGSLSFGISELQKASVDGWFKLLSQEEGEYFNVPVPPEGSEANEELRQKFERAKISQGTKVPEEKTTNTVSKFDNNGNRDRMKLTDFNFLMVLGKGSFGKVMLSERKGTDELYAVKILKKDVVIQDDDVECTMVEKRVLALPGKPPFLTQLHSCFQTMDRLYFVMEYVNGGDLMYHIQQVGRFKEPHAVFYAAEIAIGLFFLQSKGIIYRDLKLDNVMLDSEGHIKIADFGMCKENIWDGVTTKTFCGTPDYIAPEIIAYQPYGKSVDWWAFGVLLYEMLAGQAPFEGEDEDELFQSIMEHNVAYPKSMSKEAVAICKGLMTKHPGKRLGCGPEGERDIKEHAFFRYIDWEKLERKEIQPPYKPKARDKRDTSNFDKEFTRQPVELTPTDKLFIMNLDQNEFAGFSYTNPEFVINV

`COC(=O)c1cccc(O)c1Oc1c(O)cc(C(=O)O[C@H]2CCC[C@@H]2NC(=O)c2ccc(O)cc2)cc1O` [(1S,2S)-2-[(4-hydroxybenzene)amido]cyclopentyl 3,5-dihydroxy-4-[2-hydroxy-6-(methoxycarbonyl)phenoxy]benzoate] showed a pIC50 [1] of 5.38, a pIC50 [2] of 5.74 and a pIC50 [3] of 6.60. The pIC50 [4] was 4.70 and the pIC50 [5] was 6.40.
`COC(=O)c1cccc(O)c1Oc1c(O)cc(C(=O)O[C@@H]2CCC[C@H]2NC(=O)c2ccc(O)cc2)cc1O` [(1R,2R)-2-[(4-hydroxybenzene)amido]cyclopentyl 3,5-dihydroxy-4-[2-hydroxy-6-(methoxycarbonyl)phenoxy]benzoate] was tested, and the pIC50 [1] was 6.68, the pIC50 [2] was 7.40 and the pIC50 [3] was 8.30. For the same compound, the pIC50 [4] was 6.52 and the pIC50 [5] was 8.40.
